Reference: US11857604B2, “Nanovectors and uses” (NH THERAGUIX, priority 2017, dated 2024)

Test: physisorption of active substance on nanoparticles: tangential filtration (3 kDa Vivaspin), subnatant analysed by UV-visible/fluorescence
Assay type: physicochemical
Details: for concentration up to which retention of the active substance is observed (minimum) / load content by weight: AGuIX® at 100 mM [Gd3+] = 100 g/l of nanoparticles
Method: During the various examples, the maximum drug load content on polysiloxane nanoparticles was determined, when said particles are present at a concentration corresponding to a concentration used during clinical trials for the nanoparticle in question. Increasing concentrations of active substances were thus brought into contact with the nanoparticles. Solutions are purified by tangential filtration. The molecules which have not be able to adsorb to the surface of the nanoparticles pass through the membrane and are found in the subnatant, where they can be detected by spectroscopic techniques such as UV/Visible absorption or else fluorescence spectroscopy (FIG. 2).
This solution is placed in a 3 kDa Vivaspin®, and a tangential filtration cycle is carried out in order to obtain a supernatant of 200 μl. The subnatant is analysed by UV-visible analysis. The supernatant is diluted 50-fold and is analysed by UV-visible analysis.
This solution is placed in a 3 kDa Vivaspin®, and a tangential filtration cycle is carried out so as to obtain a supernatant of 200 μl. The subnatant is analysed by UV-visible analysis and fluorometry after 20-fold dilution.
This solution is placed in a 3 kDa Vivaspin®, and a tangential filtration cycle is carried out so as to obtain a supernatant of 160 μl. The subnatant is analysed by UV-visible analysis. The cisplatin is detectable by UV/VIS absorption at a wavelength of 706 nm after reaction with ODPA. For the reaction with cisplatin, a solution of ODPA at 1.4 mg/ml and a phosphate buffer (pH 6.8) are prepared. The subnatant is diluted 5-fold. 140 μl of this solution are added to 200 μl of buffer and 100 μl of ODPA. The resulting solution is heated at 100° C. for 15 min. Once the reaction is finished and the temperature has returned to ambient temperature, 560 μl of DMF are added. The final solution is filtered and then analysed by UV-visible analysis.

Molecule | limiting concentration up to which the peptide adsorbs at the surface of the nanoparticles (AGuIX® 100 mM, absorption at 280 nm of subnatants (FIG. 12)) | concentration up to which retention of the active substance is observed (minimum) | load content by weight | limiting concentration up to which cisplatin adsorbs at the surface of the nanoparticles (AGuIX® 100 mM, absorption at 706 nm of ODPA-treated subnatants (FIG. 16))
tyr3-octreotate [TATE peptide] | approximately 2 g·L^1 | ≥ 2000 µg/mL | greater than 20 mg/g of nanoparticles | –
COc1cccc2c1C(=O)c1c(O)c3c(c(O)c1C2=O)C[C@@](O)(C(=O)CO)C[C@@H]3O[C@H]1C[C@H](N)[C@H](O)[C@H](C)O1 [doxorubicin] | – | ≥ 112 µg/mL | greater than 1.12 mg/g of nanoparticles | –
N.N.[Cl][Pt][Cl] [cisplatin] | – | ≥ 240 µg/mL | greater than 2.4 mg/g of nanoparticles | approximately 240 mg·L^−1
